Where two headings read alike, the source gives them in different places.
Key:
[1] = tested on: Aβ40 peptides generated from SH-SY5Y cells expressing amyloid β protein (SP4CT cells); experiment: APP processing AlphaLisa assay, secreted Aβ40; type: cell-based; conditions: average of at least >4 replicates, read-out: AB40 IC50 AVG
Method: (§1) APP Processing (Assay Quantitates Secreted Aβ Analytes from Cell Lines):
(§2) The effect of compounds on the abundance of Aβ40 and Aβ42 peptides generated from SH-SY5Y cells expressing amyloid β protein (SP4CT cells) was determined by an AlphaLisa™ assay. Analogous to an ELISA assay, generation of signal in this AlphaLisa™ assay requires “donor” and “acceptor” beads to be brought in close proximity by specific antibody recognition of either Aβ40 or Aβ42 peptides. The assay was accomplished by removing media from compound-treated SP4CT cells to two different microplates, followed by the addition of donor beads conjugated with streptavidin binding a biotinylated anti-amyloid β monoclonal antibody (clone 4G8). Acceptor beads directly conjugated with anti-Aβ40 monoclonal antibody (G210) were added to one microplate and anti-Aβ42 monoclonal antibody (12F4) acceptor beads were added to the other. Abundance of Aβ40 and Aβ42 was directly proportional to the luminescent signal generated following excitation of donor beads by laser light.

[2] = tested on: Aβ42 peptides generated from SH-SY5Y cells expressing amyloid β protein (SP4CT cells); experiment: APP processing AlphaLisa assay, secreted Aβ42; type: cell-based; conditions: average of at least >4 replicates, read-out: AB42 IC50 AVG
Method: as §1, §2

[3] = tested on: gamma secretase-dependent cleavage of the Notch protein (NotchΔE) in HeLa cells; experiment: Notch processing split-luciferase assay (Notch intracellular domain release); type: cell-based
Excerpt: Notch Processing: (Assay Quantitates Notch Intracellular Domain Release in Cell Lines):
A “split-luciferase” assay is used to measure inhibition of gamma secretase-dependent cleavage of the Notch protein. In this assay, HeLa cells were made to express a Notch protein lacking its extracellular domain (NotchΔE) fused to an N-terminal fragment of luciferase. The same cells also expressed a C-terminal fragment of luciferase fused to the immunoglobulin J kappa recombination signal sequence binding protein (RBP). Upon NotchΔE cleavage by gamma secretase, a Notch intracellular domain (NICD)-N terminal luciferase protein is generated which translocates to the nucleus and binds the RBP-C terminal luciferase fusion, bringing two independently nonfunctional halves of luciferase together to form a functional luciferase enzyme. The activity of luciferase in these cells is directly proportional to the amount of gamma secretase-cleaved Notch. Luciferase activity is determined by the standard techniques of luciferin addition to lysed cells and measurement of total luminescence.

[4] = covalent protein binding assay with liver microsomes; type: in vitro ADME; conditions: radiolabeled compound incubated with human liver microsomes
Method: MRK-560 and Example 2 were tested in a covalent protein binding assay which is predictive of drug toxicity. The potential of drug candidates to cause covalent binding to proteins is evaluated by incubation of the radiolabeled version of the compound in question with liver microsomes. A semi-automated method based on Brandel Harvester technique is then used to measure the formation of covalent adducts of the test compound to liver proteins binding (Ref. Day et. al, J Pharmacol Toxicol Methods. 52, 278-85, 2005).

[5] = target: T1, pregnane X receptor (PXR) (Homo sapiens, UniProt O75469); experiment: PXR assay (CYP3A4-SEAP transactivation assay, PCSTA); type: cell-based; conditions: for EC50: HEP G2 cells
T1 construct: expressed in transfected cells; host or cells: HEP G2
T1 sequence (O75469 1-434): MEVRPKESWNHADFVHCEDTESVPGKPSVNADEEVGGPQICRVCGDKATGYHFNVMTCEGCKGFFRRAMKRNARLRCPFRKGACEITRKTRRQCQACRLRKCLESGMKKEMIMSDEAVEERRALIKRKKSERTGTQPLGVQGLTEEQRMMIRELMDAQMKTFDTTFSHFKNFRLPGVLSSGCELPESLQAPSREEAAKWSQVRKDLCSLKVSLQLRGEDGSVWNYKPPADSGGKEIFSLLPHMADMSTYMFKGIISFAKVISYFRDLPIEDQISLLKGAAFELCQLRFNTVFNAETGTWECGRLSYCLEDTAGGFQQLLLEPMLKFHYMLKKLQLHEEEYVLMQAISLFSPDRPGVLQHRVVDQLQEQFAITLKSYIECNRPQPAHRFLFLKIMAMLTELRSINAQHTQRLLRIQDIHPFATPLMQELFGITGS
T1 sequence (P19793 1-462 partner): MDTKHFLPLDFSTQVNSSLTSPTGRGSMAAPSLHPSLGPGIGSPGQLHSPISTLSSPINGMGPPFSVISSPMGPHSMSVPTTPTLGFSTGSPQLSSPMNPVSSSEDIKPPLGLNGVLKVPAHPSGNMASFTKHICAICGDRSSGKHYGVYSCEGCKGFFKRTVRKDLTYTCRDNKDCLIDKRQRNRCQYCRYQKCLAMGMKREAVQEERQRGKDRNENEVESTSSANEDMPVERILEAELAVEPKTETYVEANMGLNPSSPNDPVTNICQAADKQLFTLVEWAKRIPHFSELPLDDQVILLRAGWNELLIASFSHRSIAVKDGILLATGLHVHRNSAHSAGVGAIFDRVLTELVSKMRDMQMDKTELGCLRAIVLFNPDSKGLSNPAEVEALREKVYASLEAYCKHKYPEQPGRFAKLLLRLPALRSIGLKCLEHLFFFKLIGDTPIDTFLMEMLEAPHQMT
Excerpt: The CYP3A4-SEAP transactivation assay (PCSTA) effectively and rapidly evaluates compounds for their potential to induce cytochrome P450 CYP3A (human CYP3A4 or rat CYP3A1). The reporter construct contains regulatory regions from the CYP3A4 gene positioned just upstream of a secreted alkaline phosphatase (SEAP) gene. The human PXR nuclear receptor has been modified at the 5′-end so that methionine is the initiating amino acid replacing leucine found in the wild-type sequence. HEP G2 cells are transfected with the PXR plasmid (human or rat) and the reporter plasmid. Read-out for the induction of CYP3A4 consists of a SEAP calorimetric assay with para-nitro-phenyl phosphate (pNPP) as the substrate. Five point dose-response curves in duplicate are then generated with each point corresponding to the rate of conversion of pNPP to pNP by SEAP. For the human PCSTA, rifampicin is used as the positive control and 100% induction is based upon the maximum induction produced by rifampicin at 10 μM.

[6] = Homo sapiens, HeLa, average of at least >4 replicates, read-out: Notch IC50 AVG
[7] = read-out: Notch IC50 AVG, average of at least >4 replicates

Structure (SMILES)	IC50 ([1]; Homo sapiens, SH-SY5Y)	IC50 ([2]; Homo sapiens, SH-SY5Y)	IC50 [3, 6]	covalent protein binding (human microsomes) [4]	PXR % Activation @ 10 uM [5]	EC50 [5]	IC50 [1]	IC50 [2]	IC50 [3, 7]
O=S(=O)(N[C@H]1C[C@@](c2cc(F)ccc2F)(S(=O)(=O)c2ccc(Cl)cc2)C1)C(F)(F)F [Example 2, N-[cis-3-[(4-chlorophenyl)sulfonyl]-3-(2,5-difluorophenyl)cyclobutyl]-1,1,1-trifluoromethanesulfonamide]	42.8 nM	38.4 nM	3480 nM	380 pmol/mg	55.5%	3430 nM	–	–	–
C[C@]1(NS(=O)(=O)C(F)(F)F)C[C@@](c2cc(F)ccc2F)(S(=O)(=O)c2ccc(Cl)cc2)C1 [Example 17, N-[cis-3-[(4-chlorophenyl)sulfonyl]-3-(2,5-difluorophenyl)-1-methylcyclobutyl]-1,1,1-trifluoromethanesulfonamide]	37.3 nM	37 nM	5210 nM	–	74.6%	848 nM	–	–	–
CC1(NS(=O)(=O)C(F)(F)F)CC(c2cc(F)ccc2F)(S(=O)(=O)c2ccc(C(F)(F)F)cc2)C1 (stereo not drawn) [Example 18, N-(cis-3-(2,5-difluorophenyl)-1-methyl-3-{[4-(trifluoromethyl)phenyl]sulfonyl}cyclobutyl)-1,1,1-trifluoromethanesulfonamide]	60.8 nM	65.4 nM	4470 nM	–	75.5%	3090 nM	–	–	–
O=S(=O)(N([C@H]1C[C@@](c2cc(F)ccc2F)(S(=O)(=O)c2ccc(Cl)cc2)C1)S(=O)(=O)C(F)(F)F)C(F)(F)F [Example 19, N-[cis-3-[(4-chlorophenyl)sulfonyl]-3-(2,5-difluorophenyl)cyclobutyl]-1,1,1-trifluoro-N-[(trifluoromethyl)sulfonyl]methanesulfonamide]	62.6 nM	48.7 nM	5680 nM	–	89.1%	1250 nM	–	–	–
O=S(=O)([N-][C@H]1C[C@@](c2cc(F)ccc2F)(S(=O)(=O)c2ccc(Cl)cc2)C1)C(F)(F)F.[Na+] [Example 20, Sodium [cis-3-[(4-chlorophenyl)sulfonyl]-3-(2,5-difluorophenyl)cyclobutyl][(trifluoromethyl)sulfonyl]azanide]	–	–	–	–	71.9%	2890 nM	61.2 nM	53.2 nM	1770 nM
O=S(=O)([N-][C@H]1C[C@@](c2cc(F)ccc2F)(S(=O)(=O)c2ccc(Cl)cc2)C1)C(F)(F)F.[K+] [Example 21, Potassium [cis-3-[(4-chlorophenyl)sulfonyl]-3-(2,5-difluorophenyl)cyclobutyl][(trifluoromethyl)sulfonyl]azanide]	–	–	–	–	64.4%	3380 nM	64.9 nM	70.9 nM	2130 nM
O=S(=O)(N[C@H]1C[C@@](c2cc(F)ccc2F)(S(=O)(=O)c2ccc(OC(F)(F)F)cc2)C1)C(F)(F)F [Example 22, N-[cis-3-[(4-trifluoromethoxyphenyl)sulfonyl]-3-(2,5-difluorophenyl)cyclobutyl]-1,1,1-trifluoromethanesulfonamide]	250 nM	237 nM	5200 nM	–	50.6%	9650 nM	–	–	–

Source: US8759579B2, “Cyclobutyl sulfones as notch sparing gamma secretase inhibitors” (Merck Sharp & Dohme Corp., priority 2008, dated 2014)
